Here are results for six compounds from patent US6224857A, “Pharmaceutical preparations comprised of salts of hyaluronic acid with local anaesthetics” (Fidia, S.p.A., priority 1996, dated 2001).

Counter-ions that a name gives are not always drawn.

The test system of the assay is rabbit cornea. Kind of assay: Corneal anaesthesia in rabbit (blinking reflex, Camougis and Tankman method). The format is in vivo. Particulars: rabbit eye. The protocol: […] of solution was instilled in the conjunctival sac. The blinking reflex, tested with a bristle, was measured before instillation and then every 5-10 minutes until one hour after treatment. At each test time the degree of anaesthesia was expressed by means of a score of up to 10 given by the number of stimulations before the eye-blink reflex was obtained. The overall anaesthetic effect for each compound was then quantified by the area under curve (AUC) of the degree of anaesthesia over time.

[1] abbreviates: Table 1, dose 0.125% (as hydrochloride), reference Bupivacaine HCl = 100.
Where [2] appears, read: Table 5, dose 0.125%, degree of salification, 500-730 kDa, reference Bupivacaine HCl = 100.

On to `CN(C)CCCOc1nn(Cc2ccccc2)c2ccccc12` [Benzydamine HCl, benzydamine hydrochloride], for which the “Anaesthesia (AUC)” value reads like this: (Table 1, dose 0.125% (as hydrochloride), reference Benzydamine HCl = 100) 100; (Table 6, dose 0.125%, degree of salification, 50-350 kDa, reference Benzydamine HCl = 100) 100.
With “stoichiometrically neutral salt of hyaluronic acid with bupivacaine [FID 60.2082]”, the “Anaesthesia (AUC)” value is 166 under setting [1] and 100 (Table 2, dose 0.125%, FID 60.20XX (50-350 kDa), reference FID 60.2082 = 100).
On to “stoichiometrically neutral salt of hyaluronic acid with lidocaine [FID 60.2070]”, for which, for the setting “Table 1, dose 1% (as hydrochloride), reference Lidocaine HCl = 100”, the “Anaesthesia (AUC)” value turned out to be 167.
On to “stoichiometrically neutral salt of hyaluronic acid with bupivacaine [FID 62.2082]”, for which the “Anaesthesia (AUC)” value (Table 2, dose 0.125%, FID 62.20XX (750-1200 kDa), reference FID 62.2082 = 100) was 100.
For `CCCCN1CCCCC1C(=O)Nc1c(C)cccc1C` (stereo not drawn) [Bupivacaine HCl, bupivacaine hydrochloride], the “Anaesthesia (AUC)” value came out at 100 under setting [1]; 100 (Table 3, first group (50% Na salts), dose 0.125%, reference Bupivacaine HCl = 100); 100 (Table 3, second group (50% Ca salts), dose 0.125%, reference Bupivacaine HCl = 100); 100 under setting [2].
As to “stoichiometrically neutral salt of hyaluronic acid with bupivacaine [FID 61.2082]”, the “Anaesthesia (AUC)” value came out at 100 (Table 2, dose 0.125%, FID 61.20XX (500-730 kDa), reference FID 61.2082 = 100) and 314 under setting [2].
